Key:
hepatitis C = test: Example 12: patient N., hepatitis C, hepatargy and ascites, symptoms and blood counts; type: in vivo, human; details: after 2 weeks (250 mg twice a day)
[1] = test system: adenocarcinoma of the prostate gland; test: Example 9: patient K., adenocarcinoma of the prostate gland, ultrasound, PSA and blood counts; type: in vivo, human; parameters: prostate had become smaller by (ultrasound): dose or concentration left out as unconfirmed
Procedure: An ultrasound test on 8 Aug. […] A PSA test on 8 Aug.
The patient declined an operation and chemotherapy. The patient was treated with the drug. On 9 Aug. […] The treatment lasted 10 days.

melanoma-16 = test: Example 8: mice inoculated with melanoma-16; type: in vivo; details: for surviving mice in which no blastomas were ascertained / surviving mice with blastomas of approximately 0.3×0.2 mm: 36th day, 5 mg as a drink; for mice with isolated pulmonal metastases at dissection: surviving mice killed on the 36th day
[2] = target: T1, Transthyretin (protein) of the blood plasma (Homo sapiens, UniProt P02766); test: Example 3: Transthyretin of the blood plasma in test tube; type: biochemical
T1 construct: Transthyretin (protein) of the blood plasma; from tissue; host or cells: blood plasma
Procedure: Into a test tube (10 ml) with Transthyretin (protein) of the blood plasma (pH=7.0) in a concentration of 0.05 mmol/ml, four drops of 0.1% MCPA aqueous solution were introduced. The test tube was thermostatically controlled at a temperature of 37° C. After 15 minutes, the concentration of Transthyretin and the pH value of the blood plasma were measured. Transthyretin was not found, and the pH value was 6.0.

[3] = test system: cancer cells PC-3 (prostate carcinoma); test: Example 1: mitochondrial membranes of cancer cells PC-3 in test tubes; type: cell-based; details: PC-3, dilution 10^−5 mmol/l, 24 hours at 37° C.
Procedure: After thermostatically controlling the aforementioned test tubes in the course of 24 hours at a temperature of 37° C., the contents were analyzed.

[4] = test system: filtrate formed from melanoma 16; test: Example 6: filtrate from melanoma 16 in the polarisation microscope; details: filtrate with the preparation; without it the light polarization is slight
Procedure: A filtrate formed from melanoma 16 (10 ml) was accommodated in a quartz vessel and detected in the polarisation microscope. Thereafter, sodium salt (O.F.1) was introduced into the filtrate, and a repeat detection was carried out in the polarisation microscope.

[5] = target: T2, β-amyloid (protein) of the blood plasma (Homo sapiens, UniProt P05067); test: Example 4: β-amyloid of the blood plasma in test tube; type: biochemical
T2 construct: Into a test tube with β-amyloid (protein) of the blood plasma (pH=7.4); from tissue; host or cells: blood plasma
Procedure: Into a test tube with β-amyloid (protein) of the blood plasma (pH=7.4) with a concentration of 0.1 mmol/ml, three drops of 0.1% sodium salt aqueous solution (called O.F.1) are introduced. The test tube was thermostatically controlled at a temperature of 37° C. After 15 minutes, the protein concentration and the pH value of the blood plasma were measured. The protein concentration amounted to 0.03 mmol/ml, and the pH value amounted to 7.2.

[6] = test system: plasma of the blood of a sarcoma patient; test: Example 5: plasma of a sarcoma patient in the polarisation microscope; details: plasma with aqueous solution of the salt; dried plasma without it: light diffusion
Procedure: The blood of a sarcoma patient (10 ml) was centrifuged. A proportion of plasma was dried and detected in the polarisation microscope. Into the remaining proportion of plasma, an aqueous solution of lithium salt of MCPA acid was introduced, and the mixture was also detected in the polarization microscope.

T2 sequence (P05067 672-711 limits assumed): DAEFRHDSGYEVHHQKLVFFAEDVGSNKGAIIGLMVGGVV

Compound: Cc1cc(Cl)ccc1OCC(=O)O [4-chlorine-2-methyl phenoxyacetic acid]
- Albumin (hepatitis C; before treatment 2.0): 4.7 g/dL
- Bilirubin (hepatitis C; before treatment 2.9): 1.7 mg/dL
- Aspart aminotransferasis (hepatitis C; before treatment 73.0): 51.0 units/l
- Alanine aminotransferasis (hepatitis C; before treatment 77.0): 71.4 units/l
- Gammaglutamyl transferasis (hepatitis C; before treatment 129.0): 82.0 units/l
- Lactate dehydrogenasis (hepatitis C; before treatment 543.5): 335.0 units/l
- pains during urination ([1]; 10 days of treatment): became less
- prostate had become smaller by (ultrasound) ([1]; 10 days, before approximately 90 cm^3): 30%
- surviving mice in which no blastomas were ascertained (melanoma-16): 3 mice
- surviving mice with blastomas of approximately 0.3×0.2 mm (melanoma-16): 3 mice
- mice died on the 23rd day (melanoma-16; single dose of 5 mg as a drink): 2 mice
- mice with isolated pulmonal metastases at dissection (melanoma-16): 2 mice
- pH value of the blood plasma ([2]; after 15 minutes at 37° C., initial pH=7.0): 6.0
- concentration of Transthyretin ([2]; four drops of 0.1% aqueous solution, 37° C., after 15 minutes, initial 0.05 mmol/ml): not found

Compound: COc1cccc2c1C(=O)c1c(O)c3c(c(O)c1C2=O)C[C@@](O)(C(=O)CO)C[C@@H]3O[C@H]1C[C@H](N)[C@H](O)[C@H](C)O1 [Adriamycin, reference compound]
- mitochondrial membranes of cancer cells (appearance) [3]: membrane swelling
- mice alive on the 36th day of the test (melanoma-16; single dose of 5 mg as a drink): 2 mice

Compound: Cc1cc(Cl)ccc1OCC(=O)[O-].[Na+] [O.F.1]
- observation in the polarisation microscope [4]: pronounced polarization
- pH value of the blood plasma ([5]; after 15 minutes at 37° C., initial pH=7.4): 7.2
- protein (β-amyloid) concentration ([5]; three drops of 0.1% aqueous solution, 37° C., after 15 minutes, initial 0.1 mmol/ml): 0.03 mmol/mL
- surviving mice in which no blastomas were ascertained (melanoma-16): one
- surviving mice with blastomas of approximately 0.3×0.2 mm (melanoma-16): 8 mice
- mice died on the 23rd day (melanoma-16; single dose of 5 mg as a drink): one
- mice died on the 26th day (melanoma-16; single dose of 5 mg as a drink): one
- mice died on the 30th day (melanoma-16; single dose of 5 mg as a drink): 1 mice
- mice with isolated pulmonal metastases at dissection (melanoma-16): 4 mice

Compound: Cc1cc(Cl)ccc1OCC(=O)[O-].[Li+] [lithium salt of MCPA acid]
- observation in the polarisation microscope [6]: double refraction of rays
